Reference: patent publication US20100041089A1, “IMPROVED METHOD FOR DETECTING CHEMICAL […]” (priority 2006, published 2010)

Tested on: yeast genes (expressed mRNA)
Assay: DNA chip measurement of expressed mRNA of yeast genes after culture with a toxic chemical substance
Type: cell-based, Saccharomyces cerevisiae S288C
Details: for level of expressed mRNA in the presence of chemical substance / level in the absence of chemical substance: cultured two hours with the chemical substance; for The level of expressed mRNA in the presence of chemical substance/The level of expressed mRNA in the absence of chemical substance: cultured two hours with substance
Procedure: Yeast (Saccharomyces cerevisiae S288C (a SUC2mal mel gap2 CUP1)) were cultured at 25° C. on YPD medium (yeast extract 1%, polypeptone 2%, glucose 2%). One of toxic chemical substances was added to the cell at logarithmic growth phase, and the cell was further cultured for two hours. Cell was cultured without any chemical substance in the same condition, and was used as a control. Concentrations of the chemical substances were defined to inhibit the growth of the yeast but not lead to death.
After the completion of cultivation, the culture was centrifuged to collect the cells. To the cells, sodium acetate buffer (50 mM sodium acetate, 10 mM EDTA, 1% SDS) was added, and the mixture was shaken at 65° C. for five minutes, followed by returning to room temperature, and obtaining the supernatant, which procedure was repeated two times. To the supernatant, ½ amount of a solution of phenol/chloroform (1:1) was added, and the mixture was centrifuged to give a supernatant, an equal amount of chloroform was added, and the mixture was centrifuged to give a supernatant. To the supernatant, an equal amount of isopropanol containing 0.3 M sodium acetate was added, and the mixture was allowed to stand at room temperature for 30 minutes, after which the mixture was centrifuged to give sediment of the whole RNAs. Seventy % ethanol was added to the sediment, and the mixture was again centrifuged to give sediment, which was then dried and dissolved in water. mRNA was isolated from the whole RNAs as followings. In view of the fact that a poly A chain is attached to the 3′ terminus of mRNA, a polynucleotide having a poly T structure which was immobilized on the surface of latex beads was used to trap the mRNA, and then the mRNA was washed and eluted with spine column (Oligotex-dT30<Super>mRNA Purification Kit, Takara). Reverse transcription of the mRNA was conducted with a reverse transcriptase (Super Script II Reverse Transcriptase; catalogue No. 18064-014, GibcoBRL) using fluorescence-labeled nucleotides to give cDNAs that were introduced with Cy3-dUTP or Cy5-dUTP during the reverse transcription.
The labeled cDNAs were dissolved in TE buffer (10 mM Tris-HCl/1 mM EDTA, pH 8.0), and the solution was dropped on the DNA chip containing the whole genes of yeast (DNA Chip Research Inc. Japan) so that the cDNAs were hybridized on the DNA chip at 65° C. for over 12 hours. The fluoresces intensity of the DNA chip was read with a scanner, and the ratio relative to the fluorescence intensity resulting from the absence of chemical substance was estimated as the following, which is shown in Tables 1 to 9.
In the Tables, “Intensity” indicated in the rightmost column is a value of the level of expressed mRNA of each gene in control cells as divided by the average level of the expressions of the whole genes. A gene of which mRNA level is lower in control, and is higher in cases of addition of chemical substance, is especially useful in the detection of toxic substances.
Here, when a ratio of an amount of mRNA expressed in the presence of the chemical substance to an amount of mRNA expressed in the absence of the chemical substance is two or more, then it is considered significant.

With `[Cl][Pb][Cl]` [(4), PbCl2] the “level of expressed mRNA in the presence of chemical substance / level in the absence of chemical substance” value (yeast gene YNL058C) was 1.7, the “level of expressed mRNA in the presence of chemical substance / level in the absence of chemical substance” value (yeast gene YNL063W) was 1.4 and the “The level of expressed mRNA in the presence of chemical substance/The level of expressed mRNA in the absence of chemical substance” value (yeast gene YNL074C) was 1.2. For the same molecule, the “The level of expressed mRNA in the presence of chemical substance/The level of expressed mRNA in the absence of chemical substance” value (yeast gene YNL092W) was 1.8, the “The level of expressed mRNA in the presence of chemical substance/The level of expressed mRNA in the absence of chemical substance” value (yeast gene YNL115C) was 1.4 and the “The level of expressed mRNA in the presence of chemical substance/The level of expressed mRNA in the absence of chemical substance” value (yeast gene YNL156C) was 1.3. For the same molecule, the “level of expressed mRNA in the presence of chemical substance / level in the absence of chemical substance” value (yeast gene YNL176C) was 1.0, the “level of expressed mRNA in the presence of chemical substance / level in the absence of chemical substance” value (yeast gene YNL194C) was 15.2 and the “level of expressed mRNA in the presence of chemical substance / level in the absence of chemical substance” value (yeast gene YNL200C) was 2.0. For the same molecule, the “The level of expressed mRNA in the presence of chemical substance/The level of expressed mRNA in the absence of chemical substance” value (yeast gene YNL234W) was 1.8, the “level of expressed mRNA in the presence of chemical substance / level in the absence of chemical substance” value (yeast gene YNL253W) was 1.0 and the “level of expressed mRNA in the presence of chemical substance / level in the absence of chemical substance” value (yeast gene YNL276C) was 0.3. The “The level of expressed mRNA in the presence of chemical substance/The level of expressed mRNA in the absence of chemical substance” value (yeast gene YNL281W) was 1.4, the “The level of expressed mRNA in the presence of chemical substance/The level of expressed mRNA in the absence of chemical substance” value (yeast gene YNL305C) was 1.4 and the “level of expressed mRNA in the presence of chemical substance / level in the absence of chemical substance” value (yeast gene YNR051C) was 0.6. For the same molecule, the “The level of expressed mRNA in the presence of chemical substance/The level of expressed mRNA in the absence of chemical substance” value (yeast gene YNR068C) was 2.6, the “level of expressed mRNA in the presence of chemical substance / level in the absence of chemical substance” value (yeast gene YOL026C) was 1.4 and the “The level of expressed mRNA in the presence of chemical substance/The level of expressed mRNA in the absence of chemical substance” value (yeast gene YOL032W) was 1.3. The “The level of expressed mRNA in the presence of chemical substance/The level of expressed mRNA in the absence of chemical substance” value (yeast gene YOL036W) was 0.8, the “The level of expressed mRNA in the presence of chemical substance/The level of expressed mRNA in the absence of chemical substance” value (yeast gene YOL047C) was 2.5 and the “The level of expressed mRNA in the presence of chemical substance/The level of expressed mRNA in the absence of chemical substance” value (yeast gene YOL071W) was 2.0. The “The level of expressed mRNA in the presence of chemical substance/The level of expressed mRNA in the absence of chemical substance” value (yeast gene YOL082W) was 2.1, the “The level of expressed mRNA in the presence of chemical substance/The level of expressed mRNA in the absence of chemical substance” value (yeast gene YOL083W) was 2.8 and the “The level of expressed mRNA in the presence of chemical substance/The level of expressed mRNA in the absence of chemical substance” value (yeast gene YOL117W) was 1.4. For the same molecule, the “The level of expressed mRNA in the presence of chemical substance/The level of expressed mRNA in the absence of chemical substance” value (yeast gene YOL131W) was 1.0, the “The level of expressed mRNA in the presence of chemical substance/The level of expressed mRNA in the absence of chemical substance” value (yeast gene YOL150C) was 0.9 and the “The level of expressed mRNA in the presence of chemical substance/The level of expressed mRNA in the absence of chemical substance” value (yeast gene YOL162W) was 1.4. For the same molecule, the “The level of expressed mRNA in the presence of chemical substance/The level of expressed mRNA in the absence of chemical substance” value (yeast gene YOR019W) was 4.7, the “level of expressed mRNA in the presence of chemical substance / level in the absence of chemical substance” value (yeast gene YOR022C) was 1.2 and the “level of expressed mRNA in the presence of chemical substance / level in the absence of chemical substance” value (yeast gene YOR087W) was 1.3. For the same molecule, the “level of expressed mRNA in the presence of chemical substance / level in the absence of chemical substance” value (yeast gene YOR138C) was 0.8, the “The level of expressed mRNA in the presence of chemical substance/The level of expressed mRNA in the absence of chemical substance” value (yeast gene YOR197W) was 1.4 and the “level of expressed mRNA in the presence of chemical substance / level in the absence of chemical substance” value (yeast gene YOR253W) was 1.4. For the same molecule, the “level of expressed mRNA in the presence of chemical substance / level in the absence of chemical substance” value (yeast gene YOR267C) was 0.9, the “level of expressed mRNA in the presence of chemical substance / level in the absence of chemical substance” value (yeast gene YOR325W) was 0.3 and the “level of expressed mRNA in the presence of chemical substance / level in the absence of chemical substance” value (yeast gene YPL005W) was 1.0. For the same molecule, the “The level of expressed mRNA in the presence of chemical substance/The level of expressed mRNA in the absence of chemical substance” value (yeast gene YPL087W) was 7.3, the “level of expressed mRNA in the presence of chemical substance / level in the absence of chemical substance” value (yeast gene YPL150W) was 0.9 and the “level of expressed mRNA in the presence of chemical substance / level in the absence of chemical substance” value (yeast gene YPL152W) was 1.8. The “level of expressed mRNA in the presence of chemical substance / level in the absence of chemical substance” value (yeast gene YPL168W) was 1.4, the “level of expressed mRNA in the presence of chemical substance / level in the absence of chemical substance” value (yeast gene YPL180W) was 0.6 and the “level of expressed mRNA in the presence of chemical substance / level in the absence of chemical substance” value (yeast gene YPL188W) was 1.0. For the same molecule, the “The level of expressed mRNA in the presence of chemical substance/The level of expressed mRNA in the absence of chemical substance” value (yeast gene YPL196W) was 1.7, the “The level of expressed mRNA in the presence of chemical substance/The level of expressed mRNA in the absence of chemical substance” value (yeast gene YPL206C) was 1.9 and the “level of expressed mRNA in the presence of chemical substance / level in the absence of chemical substance” value (yeast gene YPL221W) was 1.8. The “The level of expressed mRNA in the presence of chemical substance/The level of expressed mRNA in the absence of chemical substance” value (yeast gene YPL222W) was 1.3, the “level of expressed mRNA in the presence of chemical substance / level in the absence of chemical substance” value (yeast gene YPL225W) was 1.6 and the “The level of expressed mRNA in the presence of chemical substance/The level of expressed mRNA in the absence of chemical substance” value (yeast gene YPR023C) was 0.8. The “level of expressed mRNA in the presence of chemical substance / level in the absence of chemical substance” value (yeast gene YPR049C) was 1.0, the “level of expressed mRNA in the presence of chemical substance / level in the absence of chemical substance” value (yeast gene YPR146C) was 0.9 and the “level of expressed mRNA in the presence of chemical substance / level in the absence of chemical substance” value (yeast gene YPR148C) was 1.3. For the same molecule, the “The level of expressed mRNA in the presence of chemical substance/The level of expressed mRNA in the absence of chemical substance” value (yeast gene YPR151C) was 4.1 and the “level of expressed mRNA in the presence of chemical substance / level in the absence of chemical substance” value (yeast gene YPR172W) was 1.2.
